Measurements: ChEMBL document CHEMBL1201862, “PubChem BioAssay data set” (2004)
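Method: 48-hour compound exposure of cells in 96-well plates, five concentrations, linear interpolation of endpoints. At the GI50, growth is halved.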 The source made the active and inactive calls. Cut-off read from the data, not from the text of the source: active = GI50 up to about 1.1 µM and inactive = higher.

How the values were obtained:
Experiment in all cases: inhibition of tumour cell growth, NCI panel, 48 h
SN12C = tested on: SN12C
MCF7 = tested on: MCF7
CCRF-CEM = tested on: CCRF-CEM
EKVX = tested on: EKVX
OVCAR-3 = tested on: OVCAR-3
NCI-H23 = tested on: NCI-H23
COLO 205 = tested on: COLO 205
HOP-18 = tested on: HOP-18
SNB-19 = tested on: SNB-19
786-0 = tested on: 786-0
M14 = tested on: M14
SK-OV-3 = tested on: SK-OV-3
SF-539 = tested on: SF-539
LOX IMVI = tested on: LOX IMVI
RPMI-8226 = tested on: RPMI-8226
KM-20L2 = tested on: KM-20L2
XF498 = tested on: XF498
TK-10 = tested on: TK-10
A498 = tested on: A498
IGROV-1 = tested on: IGROV-1
ACHN = tested on: ACHN
RXF 631 = tested on: RXF 631
KM12 = tested on: KM12
SF-295 = tested on: SF-295
HCT-15 = tested on: HCT-15
HCT-116 = tested on: HCT-116
SR = tested on: SR
SNB-78 = tested on: SNB-78
Malme-3M = tested on: Malme-3M
SF-268 = tested on: SF-268
NCI-H226 = tested on: NCI-H226
OVCAR-8 = tested on: OVCAR-8
SK-MEL-5 = tested on: SK-MEL-5
SK-MEL-2 = tested on: SK-MEL-2
HOP-92 = tested on: HOP-92
SW-620 = tested on: SW-620
M19-MEL = tested on: M19-MEL
U-251 = tested on: U-251
HT-29 = tested on: HT-29
HL-60 = tested on: HL-60
RXF 393 = tested on: RXF 393
K562 = tested on: K562
A549 = tested on: A549
HCC 2998 = tested on: HCC 2998
DMS-273 = tested on: DMS-273
CAKI-1 = tested on: CAKI-1
OVCAR-4 = tested on: OVCAR-4
NCI-H460 = tested on: NCI-H460
SNB-75 = tested on: SNB-75
OVCAR-5 = tested on: OVCAR-5
HOP-62 = tested on: HOP-62
LXFL 529 = tested on: LXFL 529
DMS-114 = tested on: DMS-114
NCI-H522 = tested on: NCI-H522
DLD-1 = tested on: DLD-1
SK-MEL-28 = tested on: SK-MEL-28
UACC-257 = tested on: UACC-257
NCI/ADR-RES = tested on: NCI/ADR-RES
UO-31 = tested on: UO-31
MOLT-4 = tested on: MOLT-4

Compound: O=NN(CCCl)C(=O)NC1CCC(CC2CCC(NC(=O)N(CCCl)N=O)CC2)CC1 (stereo not given)
- GI50 (SN12C): 28.4 µM (inactive)
- GI50 (MCF7): 0.316 µM (active)
- GI50 (CCRF-CEM): 1.05 µM (active)
- GI50 (EKVX): > 63.4 µM (inactive)
- GI50 (OVCAR-3): 27.8 µM (inactive)
- GI50 (NCI-H23): 34.1 µM (inactive)
- GI50 (COLO 205): > 48.1 µM (inactive)
- GI50 (HOP-18): > 38 µM (inactive)
- GI50 (SNB-19): 12.2 µM (inactive)
- GI50 (786-0): 13.2 µM (inactive)
- GI50 (M14): 96.8 µM (inactive)
- GI50 (SK-OV-3): 2.23 µM (inactive)
- GI50 (SF-539): 0.817 µM (active)
- GI50 (LOX IMVI): 0.91 µM (active)
- GI50 (RPMI-8226): 1.96 µM (inactive)
- GI50 (KM-20L2): > 74.1 µM (inactive)
- GI50 (XF498): 13 µM (inactive)
- GI50 (TK-10): 32.5 µM (inactive)
- GI50 (A498): 31.4 µM (inactive)
- GI50 (IGROV-1): 29.9 µM (inactive)
- GI50 (ACHN): 38.1 µM (inactive)
- GI50 (RXF 631): 41.7 µM (inactive)
- GI50 (KM12): > 73.3 µM (inactive)
- GI50 (SF-295): 0.986 µM (active)
- GI50 (HCT-15): 39.9 µM
- GI50 (HCT-116): 30.1 µM (inactive)
- GI50 (SR): 17.9 µM (inactive)
- GI50 (SNB-78): 29.5 µM (inactive)
- GI50 (Malme-3M): 32.3 µM (inactive)
- GI50 (SF-268): 0.836 µM (active)
- GI50 (NCI-H226): 79.3 µM (inactive)
- GI50 (OVCAR-8): 19.9 µM (inactive)
- GI50 (SK-MEL-5): 32 µM (inactive)
- GI50 (SK-MEL-2): 39.1 µM (inactive)
- GI50 (HOP-92): 26.2 µM (inactive)
- GI50 (SW-620): 23.3 µM (inactive)
- GI50 (M19-MEL): 2.7 µM (inactive)
- GI50 (U-251): 1.24 µM (inactive)
- GI50 (HT-29): > 100 µM (inactive)
- GI50 (HL-60): 16.4 µM (inactive)
- GI50 (RXF 393): 1.66 µM (inactive)
- GI50 (K562): 2.26 µM (inactive)
- GI50 (A549): 33 µM (inactive)
- GI50 (HCC 2998): > 100 µM (inactive)
- GI50 (DMS-273): 21.9 µM (inactive)
- GI50 (CAKI-1): 31.3 µM (inactive)
- GI50 (OVCAR-4): 28.8 µM (inactive)
- GI50 (NCI-H460): 1.74 µM (inactive)
- GI50 (SNB-75): 16.6 µM (inactive)
- GI50 (OVCAR-5): > 100 µM (inactive)
- GI50 (HOP-62): 1.97 µM (inactive)
- GI50 (LXFL 529): 36.1 µM (inactive)
- GI50 (DMS-114): 24.4 µM (inactive)
- GI50 (NCI-H522): 1.53 µM (inactive)
- GI50 (DLD-1): 23.6 µM (inactive)
- GI50 (SK-MEL-28): > 65.8 µM (inactive)
- GI50 (UACC-257): 3.29 µM (inactive)
- GI50 (NCI/ADR-RES): 24.3 µM (inactive)
- GI50 (UO-31): 46.1 µM (inactive)
- GI50 (MOLT-4): 1.21 µM (inactive)
